The source of these data is patent US20040248765A1, “Tumour targeting prodrugs activated by metallo matrixproteinases” (priority 2001, published 2004).

The subject of data set [1] is calf thymus DNA. Nature of the data set: Fluorescence quenching, Ethidium Bromide displacement from calf thymus DNA. It is filed as binding.
For another data set, the target named is T1, topo I (Homo sapiens, UniProt P11387).
T1 sequence (P11387 1-765): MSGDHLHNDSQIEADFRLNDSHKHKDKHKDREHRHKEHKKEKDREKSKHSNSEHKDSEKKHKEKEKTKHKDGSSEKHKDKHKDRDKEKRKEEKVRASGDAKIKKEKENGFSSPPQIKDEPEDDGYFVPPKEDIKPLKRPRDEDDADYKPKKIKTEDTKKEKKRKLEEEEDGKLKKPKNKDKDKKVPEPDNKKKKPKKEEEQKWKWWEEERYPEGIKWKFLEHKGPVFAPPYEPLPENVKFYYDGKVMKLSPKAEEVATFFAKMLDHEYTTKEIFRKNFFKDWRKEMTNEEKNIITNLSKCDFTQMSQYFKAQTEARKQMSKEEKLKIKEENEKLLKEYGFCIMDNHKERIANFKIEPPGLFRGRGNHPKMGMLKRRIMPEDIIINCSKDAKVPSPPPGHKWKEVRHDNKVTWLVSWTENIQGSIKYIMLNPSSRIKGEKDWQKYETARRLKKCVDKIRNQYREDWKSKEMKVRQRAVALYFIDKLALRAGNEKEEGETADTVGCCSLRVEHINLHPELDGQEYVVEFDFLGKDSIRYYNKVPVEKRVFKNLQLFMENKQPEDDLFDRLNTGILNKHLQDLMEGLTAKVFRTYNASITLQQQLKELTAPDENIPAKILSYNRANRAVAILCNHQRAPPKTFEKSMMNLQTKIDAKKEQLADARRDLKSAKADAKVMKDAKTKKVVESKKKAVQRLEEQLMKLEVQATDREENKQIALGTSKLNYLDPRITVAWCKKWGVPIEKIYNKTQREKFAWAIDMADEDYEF
Briefly: Inhibition of topo I-mediated relaxation of pBR322 DNA. Format: biochemical. Particulars: tested between 1-100 μM. On the procedure: Neither example (8) [NU:UB187] (heptapeptide) nor its hexa-, penta-, or tetra-peptide metabolites {examples (7) [NU:UB 205], (6) [NU:UB 204] and (5) [NU:UB 186] respectively} inhibited the topo I- mediated relaxation of pBR322 DNA at concentrations up to 100 μM. […] (the preferred MMP-2 cleavage product of example (8) [NU:UB187] The topo I activities of example (2) [NU:UB 31] and example (1b) [NU:UB 197] bad previously been determined [Table 1].

For data set [2], the system named is calf thymus DNA. Briefly: Fluorescence quenching, Hoechst Dye 33258 displacement from calf thymus DNA. It is filed as binding.
Another data set concerns MAC15A. Briefly: In vitro cytotoxicity, MAC15A, 1 hour exposure. Conditions: for % cells remaining: 1 × 10^4 cells/ml. It is filed as cell-based.
Data set [3] is described as follows: In vitro tumour incubations: metabolism by dilute HT1080 tumour homogenate (HPLC). Format: in vitro ADME. Conditions: dilute HT1080 tumour homogenate (1:500). As to the method: Separation was achieved using gradient reversed phase HPLC On a Lichrospher (25×4 mm) column.
Mobile phase A consisted of 10% acetonitrile: 90% TFA (0.05%) and mobile phase B of 60% acetonitrile: 40% TFA (0.05%). Optimum detection was at the λmax of 248 nm using a flow rate of 1.2 ml/min. The gradient profile was from 60% A to 5% A over 25 min.
Sample preparation for HPLC was by simple protein precipitation. 3 vols. of methanol were added to 1 vol. of sample (typically 100 μl) which was centrifuged at 3000 g for 5 min. The supernatant was injected directly onto the HPLC column.
In Vitro Tumour Incubations
Solid tumour (HTT1080—excised from NCI-Nu mice under a Home Office Licence) was homogenised (1:4) in MMP buffer. Tumour homogenates were incubated at 25° C. and compounds (drugs) were added to the homogenate to give a final concentration of 10 μM or 100 μM. Samples were taken at timed intervals and prepared for HPLC analysis as described above.
Where metabolism was so rapid tumour homogenates required dilution (to 1:500) before analysis.

The target of another data set is T2, human recombinant MMP-9 (Homo sapiens, UniProt P14780).
T2 construct: purchased Calbiochem (Calbiochem-Novabiochem Ltd, Nottingham, UK)
Briefly: In vitro enzyme incubation with recombinant MMP-9 (HPLC, MS/MS). It is filed as biochemical. Particulars: HPLC and MS/MS. As to the method:
In vitro Enzyme Incubations
Compounds were incubated in vitro with purified recombinant enzyme (either MMP-9 or MMP-2) (Calbiochem, Nottingham, UK). Typically, compounds (drugs) were incubated at 5 μM concentrations using 10 μl of enzyme, 10μl of drug and 90 μl of buffer at 25° C. The buffer used consisted of 200 mM NaCl, 50 mM Tris, 5 mM CaCl2, 20 μM ZnSO4 and 0.05% Brij35 at pH 7.6.
At various time points 20 μl samples were taken and 60 μl of methanol added to precipitate proteins as described above and the metabolism of the compounds was analysed by HPLC (as above).

Data set [4] has as its system MAC15A adenocarcinoma of the colon. Briefly: In vitro cytotoxicity against MAC15A adenocarcinoma of the colon, 96 hours exposure. Format: cell-based. Conditions: Mus musculus, 96 h.

SMILES strings stand for the structures. Where a SMILES comes first, the peptide text is derived from it. [ ]: non-standard residue; d: D form. The star is where a group is joined. NH(CH2)3NH(1-anthraquinonyl) = O=C1c2ccccc2C(=O)c2c(NCCCN*)cccc21 Some results are limits rather than exact numbers.

T2 sequence (P14780 94-707): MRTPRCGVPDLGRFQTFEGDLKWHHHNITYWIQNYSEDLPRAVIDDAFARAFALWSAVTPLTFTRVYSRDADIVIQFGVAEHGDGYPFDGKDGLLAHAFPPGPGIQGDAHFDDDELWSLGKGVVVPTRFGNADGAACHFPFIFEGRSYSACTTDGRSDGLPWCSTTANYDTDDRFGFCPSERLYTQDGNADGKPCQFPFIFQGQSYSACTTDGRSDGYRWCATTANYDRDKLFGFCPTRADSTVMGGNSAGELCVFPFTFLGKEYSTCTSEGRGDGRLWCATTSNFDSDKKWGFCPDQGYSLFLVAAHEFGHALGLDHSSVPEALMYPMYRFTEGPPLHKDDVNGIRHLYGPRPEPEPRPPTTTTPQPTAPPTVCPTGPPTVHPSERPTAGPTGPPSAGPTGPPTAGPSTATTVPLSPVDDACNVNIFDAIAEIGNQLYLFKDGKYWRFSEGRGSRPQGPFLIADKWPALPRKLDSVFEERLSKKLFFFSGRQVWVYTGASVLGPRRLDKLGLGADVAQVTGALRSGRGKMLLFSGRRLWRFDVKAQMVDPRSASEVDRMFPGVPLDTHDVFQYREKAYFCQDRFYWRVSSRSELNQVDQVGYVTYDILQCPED

The melting point is the temperature of the solid-liquid transition. By IC50 is commonly meant the concentration needed to halve the response being measured. For `CC(C)C[C@H](NC(=O)[C@H](C)NC(=O)[C@H](C)NC(=O)[C@@H](C)N)C(=O)NCC(=O)N[C@@H](CC(C)C)C(=O)N1CCC[C@H]1C(=O)NCCCNc1cccc2c1C(=O)c1ccccc1C2=O.O=C(O)C(F)(F)F` [Example 8, 1-[3-(D-Alanyl-L-alanyl-L-alanyl-L-leucyl-glycyl-L-leucyl-L-prolylamino)-propylamino]anthraquinone trifluoroacetate] (H-[dA]AALGLP-{NH(CH2)3NH(1-anthraquinonyl)}), the melting point is 166 °C. Also, the “QE50 (Ethidium Bromide displacement)” value in the data set on calf thymus DNA [1] (calf thymus DNA) is 17 µM. In addition, the “intercalation into DNA” value in the data set on calf thymus DNA [1] (refers to Table 3) is “not to intercalate into DNA”. In addition, at topo I, the “LEVEL OF INHIBITION of topo I-mediated relaxation pBR322 DNA” value was “No inhibition of relaxation between 1-100 μM”. Further, in the data set on calf thymus DNA [2] (calf thymus DNA), the “QH50 (Hoechst Dye 33258 displacement)” value stood at 4 µM. Also, in the data set on calf thymus DNA [2] (in comparison to example (2) NU:UB 31), the “groove binding to DNA” value is “weak groove binding agent”. In addition, the “% cells remaining” value in the data set with MAC15A (1 μM) turned out to be 100%. Further, the “% cells remaining” value with MAC15A (10 μM) worked out at 100%. Also, in the data set with MAC15A (100 μM), the “% cells remaining” value was 95%. In the data set on MAC15A (Mus musculus), this molecule showed an IC50 above 100 µM. In data set [3], the “major products / metabolite” value was “the cleavage product Example 4 and the anthraquinone Example 1a”; the rate of metabolism is recorded as 1.75 μmol/min/g tissue. The “cleavage product with MMP-9” value on human recombinant MMP-9 is reported as “cleavage to anthraquinonyl, spacer-linked tripeptide Example 4”. For the same molecule, the half-inhibitory concentration (IC50) in data set [4] is 36 µM.
